From patent US11066378B2, “Caffeic acid derivatives for anti-angiogenesis” (Taipei Medical University, priority 2015, dated 2021)

Key:
[1] = tested on: gelatinases (MMP-2 and MMP-9); experiment: Gelatinase protein (immunoblot) and activity (gelatin zymography) in HUVECs; type: cell-based, human; conditions: FIG. 6D
Description: The experiments were carried out as described previously (Pan et al., 2010). Briefly, the cells (5×10^5 cells/well) seeded on the 6-well plates and incubated with different concentrations (0.5, 1, and 2 μM) of K20E under normal culture condition for 15 min or 24 h to detect the expression levels of the phosphorylated proteins and the total proteins, respectively. The treated cells were harvested and lysed by using PROPREP® protein extraction solution (#17081; iNtRON Biotechnology, Gyeonggi-Do, South Korea). The cell lysates were further centrifuged at 13000×g at 4° C. for 10 min to collect the supernatants for sodium dodecyl sulfate-polyacrylamide gel electrophoresis (SDS-PAGE). Protein concentration was measured by the Bio-Rad protein assay kit (Bio-Rad, Hercules, Calif., USA) according to the manufacturer's instructions. […] The luminescence signal was acquired by Fujifilm LAS-4000 system (San Leandro, Calif., USA) and quantified by using MultiGauge software (v3.0; Fujifilm). […] The relative protein expression was calculated according to the values of the control group (treated with 5% or 10% FBS alone) as 100%.
The experiments were carried out according to the procedure of previous study with minor modification (Chen et al., 2012). […] The intensity of the digested bands was quantified by using Multi Gauge software. […]

[2] = tested on: LLC1 lung carcinoma tumor; experiment: Lewis lung carcinoma-bearing mouse model; type: in vivo; conditions: LLC1-bearing mice, 2-week treatment, 4 and 8 mg/kg/day intraperitoneal, FIG. 1A
Text: The experimental design and procedure according to the method reported by our previous study with minor modification (Liu et al., 2013). Briefly, male C57BL/6 mice (average of 8-week-old) were purchased from the BioLASCO (Taipei, Taiwan) and housed in a 12-h light/dark cycles with free access to food and water. All animal care followed the institutional animal ethical guidelines of ChinaMedical University (Taichung, Taiwan). After 1 week adaptation, the mice were divided randomly into three groups (n=6/group): Group 1 (control group; treatment with normal saline), Group 2 (treatment with 4 mg/kg body weight/day of […]), and Group 3 (treatment with 8 mg/kg body weight/day of […]). At first, the LLC1 lung cancer cells (6×10^5 cells in 100 μL of total volume) were injected subcutaneously into the back skin of mice to induce lung carcinoma xenografts. Two weeks later, the tumor-bearing mice began to receive the treatments according to experiment design (normal saline or […] with different dosages) by intraperitoneal injection once a day for two weeks. At the end of the study, the tumor masses were harvested to photograph and weighted.

Which “activity levels of gelatinases (MMP-2 and MMP-9)” value ([1]; gelatin zymography) does the source give for COC(=O)/C=C/c1cc(OC(C)=O)c2c(c1)[C@H](C(=O)OC)[C@@H](c1ccc(OC(C)=O)c(OC(C)=O)c1)O2 [K20E] here?
Its value is “evidently decreased”.

What about the “protein levels of gelatinases (MMP-2 and MMP-9)” value ([1]; immunoblot) of the same molecule?
The value was “evidently decreased”.

And the tumor mass [2]?
The tumor mass was “dose-dependently reduced”.
